Results taken from patent publication US20200079757A1, “COMPOUNDS FOR THE TREATMENT OF RESPIRATORY DISEASES” (THE UNIVERSITY OF MELBOURNE, priority 2017, published 2020).

How the values were obtained:
[1] = system: SCNN1A gene expression in BEAS-2B cells; assay: TGF-β-induced suppression of dexamethasone-induced SCNN1A gene expression in BEAS-2B cells; type: cell-based; details: for SCNN1A mRNA level, Dex / SCNN1A mRNA level, TGF-β / SCNN1A mRNA level, TGF-β/Dex / SCNN1A mRNA level, vehicle (no stimulus): BEAS-2B
Method: The primary assay for the activity of the novel CK1δ/ε inhibitors is the modulation of gene expression in the airway epithelial cell line, the BEAS-2B cells. The assay is conducted under several conditions. Generally, TGF-β or TNF-α is used to elicit fibrogenic or inflammatory genes, respectively. The agents are added at a concentration of 10 μM, or at the indicated concentrations for a period of 30 min prior to the addition of TGF-β/TNF-α which are incubated for a further 20 hours before the addition, in some experiments of the glucocorticoid, dexamethasone (Dex, 30 nM) for the final 4 hours of the experiment, prior to harvest of cellular RNA to measure by RT-qPCR the levels of mRNA of marker genes for inflammation and fibrogenesis. The inhaled corticosteroid (ICS), budesonide is also used in some experiments. Furthermore, the supernatants are harvested at the end of the incubation periods in selected experiments to measure the levels of CSF-2 or IL-8 by ELISA as described in (Tran et al. (2005) British Journal of Pharmacology, 145, 123-131). Prior to experimentation, BEAS-2B and A549 cells were incubated in serum-free DMEM containing 0.25% bovine serum albumin (BSA) and insulin-transferrin-selenium—containing supplement (Monomed A; CSL, Parkville, Melbourne, Australia). Where indicated, cells were treated with one of the series of synthesised compounds (0.3-10 μM) prior to exposure to 100 pM TGF-β1 (R&D Systems, Minneapolis, Minn.) or 300 pM bFGF (Promega, Madison, Wis.). Total RNA was extracted from cultured cells using illustra RNAspin Mini RNA Isolation Kit (GE Healthcare). RNA extracts were reverse-transcribed into cDNA using High-Capacity RNA-to-cDNA Kit (Applied Biosystems). Real-time PCR was then performed using a QuantStudio 6 Flex Real-Time PCR System using iTaq Universal SYBR green supermix and the following thermal protocol: 50° C. (2 min), 95° C. (10 min), then 40 cycles of 95° C. (15 sec), 60° C. (1 min). The threshold cycle (CT) values determined for target genes were normalized against those obtained for 18S ribosomal RNA (18S rRNA), which was included as internal control. The generation of specific PCR products was confirmed by dissociation curve analysis. In FIG. 1, the effects of SS9-010 are contrasted with those of PF670462 in an assay in BEAS-B cells measuring the induction of the glucocorticoid-regulated gene, SCNN1A encoding the protein epithelial sodium channel alpha subunit. Serum-starved BEAS-2B cells were treated with CK1δ/ε inhibitor PF670462 (1, 3, 10 μM) or SS9-010 (1, 3, 10 μM) 30 min prior to TGF-β1 (40 pM) for 24 hours, then stimulated with dexamethasone (30 nM) for 4 hours. RNA was then extracted and analyzed by RT-qPCR. Data are presented as mean±SEM for n=4 independent experiments. The potency of PF670462 and SS9-010 were similar.

[2] = system: Col 1A gene expression in BEAS-2B cells; assay: TNFα and TGFβ induced Col 1A gene expression in BEAS-2B cells (RT-qPCR); type: cell-based
Method: The primary assay for the activity of the novel CK1δ/ε inhibitors is the modulation of gene expression in the airway epithelial cell line, the BEAS-2B cells. The assay is conducted under several conditions. Generally, TGF-β or TNF-α is used to elicit fibrogenic or inflammatory genes, respectively. The agents are added at a concentration of 10 μM, or at the indicated concentrations for a period of 30 min prior to the addition of TGF-β/TNF-α which are incubated for a further 20 hours before the addition, in some experiments of the glucocorticoid, dexamethasone (Dex, 30 nM) for the final 4 hours of the experiment, prior to harvest of cellular RNA to measure by RT-qPCR the levels of mRNA of marker genes for inflammation and fibrogenesis. The inhaled corticosteroid (ICS), budesonide is also used in some experiments. Furthermore, the supernatants are harvested at the end of the incubation periods in selected experiments to measure the levels of CSF-2 or IL-8 by ELISA as described in (Tran et al. (2005) British Journal of Pharmacology, 145, 123-131).
Prior to experimentation, BEAS-2B and A549 cells were incubated in serum-free DMEM containing 0.25% bovine serum albumin (BSA) and insulin-transferrin-selenium—containing supplement (Monomed A; CSL, Parkville, Melbourne, Australia). Where indicated, cells were treated with one of the series of synthesised compounds (0.3-10 μM) prior to exposure to 100 pM TGF-β1 (R&D Systems, Minneapolis, Minn.) or 300 pM bFGF (Promega, Madison, Wis.).
Total RNA was extracted from cultured cells using illustra RNAspin Mini RNA Isolation Kit (GE Healthcare). RNA extracts were reverse-transcribed into cDNA using High-Capacity RNA-to-cDNA Kit (Applied Biosystems). Real-time PCR was then performed using a QuantStudio 6 Flex Real-Time PCR System using iTaq Universal SYBR green supermix and the following thermal protocol: 50° C. (2 min), 95° C. (10 min), then 40 cycles of 95° C. (15 sec), 60° C. (1 min). The threshold cycle (CT) values determined for target genes were normalized against those obtained for 18S ribosomal RNA (18S rRNA), which was included as internal control. The generation of specific PCR products was confirmed by dissociation curve analysis.

Row | Structure (SMILES) | potency compared with PF670462, induction of glucocorticoid-regulated gene SCNN1A ([1]; BEAS-2B, 1, 3, 10 μM, TGF-β1 40 pM 24 h, dexamethasone 30 nM 4 h) | SCNN1A mRNA level, Dex ([1]; agent 3 μM) [fold control] | SCNN1A mRNA level, TGF-β ([1]; agent 3 μM) [fold control] | SCNN1A mRNA level, TGF-β/Dex ([1]; agent 3 μM) [fold control] | SCNN1A mRNA level, vehicle (no stimulus) ([1]; agent 3 μM) [fold control] | Col1A mRNA level, TGF-β ([2]; agent 10 μM) [fold control] | Col1A mRNA level, TNF-α (n = 2) ([2]; agent 10 μM) [fold control] | Col1A mRNA level, vehicle (no stimulus) ([2]; agent 10 μM) [fold control] | SCNN1A mRNA level, Dex ([1]; agent 10 μM) [fold control] | SCNN1A mRNA level, TGF-β ([1]; agent 10 μM) [fold control] | SCNN1A mRNA level, TGF-β/Dex ([1]; agent 10 μM) [fold control] | SCNN1A mRNA level, vehicle (no stimulus) ([1]; agent 10 μM) [fold control] | Col1A mRNA level, TGF-β ([2]; agent 3 μM) [fold control] | Col1A mRNA level, TNF-α (n = 2) ([2]; agent 3 μM) [fold control] | Col1A mRNA level, vehicle (no stimulus) ([2]; agent 3 μM)
1 | CNc1nccc(-c2c(-c3ccc(F)cc3)ncn2C2CCCCC2)n1 [SS9-010, 4-(1-Cyclohexyl-4-(4-fluorophenyl)-1H-imidazol-5-yl)-N-methylpyrimidin-2-amine] | similar | 3.77 ± 0.33 | 0.67 ± 0.03 | 2.77 ± 0.31 | 1.14 ± 0.05 | 1.09 ± 0.10 | 0.37 | 0.30 ± 0.02 | – | – | – | – | – | – | –
2 | CCCCCCCCN1CCC(n2cnc(-c3ccc(F)cc3)c2-c2ccnc(N)n2)CC1 [SS8-058, 4-(4-(4-Fluorophenyl)-1-[1-octylpiperidin-4-yl]-1H-imidazol-5-yl)pyrimidin-2-amine] | – | – | – | – | – | 9.68 ± 1.25 | 1.11 | 0.91 ± 0.19 | 6.57 | 0.91 | 3.77 | 2.62 | – | – | –
3 | Cl.Nc1nccc(-c2c(-c3ccc(F)cc3)ncn2C2CCCCC2)n1 [PF670462, 4-(1-Cyclohexyl-4-(4-fluorophenyl)-1H-imidazol-5-yl)pyrimidin-2-amine hydrochloride, reference compound] | – | 3.36 ± 0.25 | 0.91 ± 0.08 | 2.56 ± 0.08 | 1.11 ± 0.10 | 1.53 ± 0.33 | 0.65 | 0.65 ± 0.02 | – | – | – | – | 1.91 ± 0.32 | 0.52 | 0.47 ± .04 fold control
